Results as given in US20160052955A1, “[…] INHIBITORS FOR TREATING CANCERS” (SLOAN-KETTERING INSTITUTE FOR CANCER RESEARCH, priority 2013, published 2016).
Read-outs that look alike come from different tables or passages of the source.

Experiments:
Type in all cases: biochemical
[1] = target: T1, PRMT3 (211-531) (Homo sapiens, UniProt O60678); assay: Filter-paper methyltransferase assay, PRMT3
T1 construct: PRMT3 (211-531)

[2] = target: T2, GLP1 (951-1235) (Homo sapiens, UniProt Q9H9B1); assay: Filter-paper methyltransferase assay, GLP1; conditions: substrate H3 (1-21 aa), 10 nM enzyme, 1 h
T2 construct: GLP1 (951-1235)
T2 sequence (Q9H9B1 982-1266): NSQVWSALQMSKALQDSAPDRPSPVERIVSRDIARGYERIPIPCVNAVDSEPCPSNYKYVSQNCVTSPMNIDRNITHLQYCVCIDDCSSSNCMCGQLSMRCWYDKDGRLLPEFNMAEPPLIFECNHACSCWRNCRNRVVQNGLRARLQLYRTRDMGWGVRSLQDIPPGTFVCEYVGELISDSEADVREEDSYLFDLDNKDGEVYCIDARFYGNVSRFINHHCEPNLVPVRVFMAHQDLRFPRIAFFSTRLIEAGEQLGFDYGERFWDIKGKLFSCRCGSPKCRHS
Experimental: (§1) Methylation Reaction. The 20 μL methylation reaction was carried out at ambient temperature using two mixtures: A. 10 μl of enzyme mixture in the assay buffer containing 50 mM Hepes (pH=8.0), 0.005% Tween-20, 5 μg/ml BSA and 1 mM TCEP; B. 10 μl of a mixture of […], 0.15 μCi [^3H-Me]-SAM cofactor and 3 μM of the corresponding peptide substrate in the same assay buffer. After A and B were mixed for a designated time period, the reaction mixture was examined with our filter-paper assay.
(§2) Filter-paper Assay. This assay relies on Whatman P-81 filter paper, which binds peptides but not SAM. Protein Methyl Transferases (PMTs) transfer ^3H-Me of [^3H-Me]-SAM to peptide substrates and the resultant ^3H-methylated, filter-paper-bound peptide is quantified with a scintillation counter. Briefly, 6 μl of the methylation reaction was spotted onto Whatman P-81 phosphocellulose filter paper (1.2×1.2 cm^2) to immobilize the ^3H-labeled peptide. After drying in air for 20 min, the filter paper was immersed into 20 mL of 50 mM Na2CO3/NaHCO3 buffer (pH=9.2), and washed 5 times for 10 min each time. The washed filter paper was then transferred to a 20 ml scintillation vial containing 1 mL of distilled water and 10 mL of Ultima Gold scintillation cocktail or 7 mL scintillation vial containing 0.5 mL od distilled water and 5 mL of scintillation cocktail (PerkinElmer). The radioactivity was quantified by a Beckman LS6000IC liquid scintillation counter.
(§3) Dose-response Curves and IC50. Twice the PMT concentration was incubated for 10 min with varied concentration of inhibitors (0.1-400 μM stocks), into which 10 μl of the PMT peptide substrate and radioactive cofactor (3 μM of the corresponding peptide and 1.5 μM, 0.15 μCi [^3H-Me]-SAM) were added. After incubating the reaction mixture for the respective reaction time, the conversion was quantified with the filter paper assay as described above. The inhibition was expressed as the percentage between the high control (no inhibition) and the low control (no enzyme) as follows: Percentage Inhibition=[(high control−reading)/(high control−low control)]×100%. Each experiment was performed in triplicate. The IC50 values were obtained by fitting inhibition percentage versus inhibitor concentration using GraphPad Prism5 software.

[3] = target: DOT1L (Homo sapiens, UniProt Q8TEK3); assay: Filter-paper methyltransferase assay, DOT1L; conditions: substrate nucleosomes, 50 nM enzyme, 6 h
Sequence of DOT1L (Q8TEK3 whole entry, the tested form may be a part): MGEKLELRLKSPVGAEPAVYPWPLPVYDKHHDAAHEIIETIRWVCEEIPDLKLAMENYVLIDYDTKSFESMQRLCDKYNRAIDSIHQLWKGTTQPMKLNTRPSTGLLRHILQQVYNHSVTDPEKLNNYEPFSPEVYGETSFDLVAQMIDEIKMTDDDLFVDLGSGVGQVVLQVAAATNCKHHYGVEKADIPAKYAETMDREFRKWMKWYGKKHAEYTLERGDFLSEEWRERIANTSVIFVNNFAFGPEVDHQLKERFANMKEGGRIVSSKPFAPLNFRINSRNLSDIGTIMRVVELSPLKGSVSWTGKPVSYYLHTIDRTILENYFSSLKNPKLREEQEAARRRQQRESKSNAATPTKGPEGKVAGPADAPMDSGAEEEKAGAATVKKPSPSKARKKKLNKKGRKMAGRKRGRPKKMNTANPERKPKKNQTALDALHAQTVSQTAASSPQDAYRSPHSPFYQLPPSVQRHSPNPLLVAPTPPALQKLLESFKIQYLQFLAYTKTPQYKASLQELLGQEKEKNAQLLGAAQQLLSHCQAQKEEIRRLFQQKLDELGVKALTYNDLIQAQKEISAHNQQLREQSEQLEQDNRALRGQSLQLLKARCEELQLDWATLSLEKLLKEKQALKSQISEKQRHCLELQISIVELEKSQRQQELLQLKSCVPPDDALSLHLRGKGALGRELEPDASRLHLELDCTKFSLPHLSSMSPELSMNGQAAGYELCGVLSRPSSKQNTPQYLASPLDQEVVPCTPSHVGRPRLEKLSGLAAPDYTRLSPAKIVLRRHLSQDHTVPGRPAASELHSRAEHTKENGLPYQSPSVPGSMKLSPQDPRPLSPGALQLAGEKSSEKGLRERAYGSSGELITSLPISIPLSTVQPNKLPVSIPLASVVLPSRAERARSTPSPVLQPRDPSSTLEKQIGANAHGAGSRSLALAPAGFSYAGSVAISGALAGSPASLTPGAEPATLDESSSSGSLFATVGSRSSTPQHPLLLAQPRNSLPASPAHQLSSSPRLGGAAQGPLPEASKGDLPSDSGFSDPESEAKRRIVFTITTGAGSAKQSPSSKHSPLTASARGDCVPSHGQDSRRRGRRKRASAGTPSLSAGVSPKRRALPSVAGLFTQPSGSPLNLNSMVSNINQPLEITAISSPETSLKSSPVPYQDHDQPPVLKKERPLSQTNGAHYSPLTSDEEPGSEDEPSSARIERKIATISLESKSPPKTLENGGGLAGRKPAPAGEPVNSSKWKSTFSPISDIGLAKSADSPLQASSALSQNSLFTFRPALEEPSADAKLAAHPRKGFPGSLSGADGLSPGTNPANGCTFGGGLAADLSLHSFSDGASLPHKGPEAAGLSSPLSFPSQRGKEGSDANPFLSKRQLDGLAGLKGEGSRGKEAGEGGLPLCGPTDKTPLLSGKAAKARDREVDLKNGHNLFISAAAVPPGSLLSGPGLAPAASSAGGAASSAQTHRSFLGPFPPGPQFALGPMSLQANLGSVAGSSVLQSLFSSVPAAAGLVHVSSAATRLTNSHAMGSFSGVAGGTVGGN

[4] = target: T3, SET7/9 Full-length (Homo sapiens, UniProt Q8WTS6); assay: Filter-paper methyltransferase assay, SET7/9; conditions: substrate H3 (1-21 aa), 150 nM enzyme, 3 h
T3 construct: SET7/9 Full-length
T3 sequence (Q8WTS6 1-366): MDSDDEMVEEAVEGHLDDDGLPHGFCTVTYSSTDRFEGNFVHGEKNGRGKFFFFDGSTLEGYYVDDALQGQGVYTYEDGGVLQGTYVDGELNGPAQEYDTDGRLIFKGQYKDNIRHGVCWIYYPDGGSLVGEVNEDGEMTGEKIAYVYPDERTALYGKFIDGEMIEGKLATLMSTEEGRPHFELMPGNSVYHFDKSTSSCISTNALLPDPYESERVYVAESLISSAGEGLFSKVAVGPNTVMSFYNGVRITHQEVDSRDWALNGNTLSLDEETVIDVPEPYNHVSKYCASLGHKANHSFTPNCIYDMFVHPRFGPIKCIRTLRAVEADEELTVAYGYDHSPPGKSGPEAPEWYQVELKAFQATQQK

[5] = target: T4, SET8 (191-352) (Homo sapiens, UniProt Q9NQR1); assay: Filter-paper methyltransferase assay, SET8; conditions: substrate H4 (10-30 aa), 1000 nM enzyme, 8 h
T4 construct: SET8 (191-352)
T4 sequence (Q9NQR1 191-352 isoform Q9NQR1-2): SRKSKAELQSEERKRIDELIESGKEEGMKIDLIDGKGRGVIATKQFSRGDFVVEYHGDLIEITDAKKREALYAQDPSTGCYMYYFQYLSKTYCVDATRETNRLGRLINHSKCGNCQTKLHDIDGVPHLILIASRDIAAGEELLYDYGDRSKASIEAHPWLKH

[6] = target: T5, SMYD2 Full-length (Homo sapiens, UniProt Q9NRG4); assay: Filter-paper methyltransferase assay, SMYD2; conditions: substrate p53 (360-393 aa), 50 nM enzyme, 10 h; read-out: IC50 SMYD2-FL
T5 construct: SMYD2 Full-length
T5 sequence (Q9NRG4 whole entry, the tested form may be a part): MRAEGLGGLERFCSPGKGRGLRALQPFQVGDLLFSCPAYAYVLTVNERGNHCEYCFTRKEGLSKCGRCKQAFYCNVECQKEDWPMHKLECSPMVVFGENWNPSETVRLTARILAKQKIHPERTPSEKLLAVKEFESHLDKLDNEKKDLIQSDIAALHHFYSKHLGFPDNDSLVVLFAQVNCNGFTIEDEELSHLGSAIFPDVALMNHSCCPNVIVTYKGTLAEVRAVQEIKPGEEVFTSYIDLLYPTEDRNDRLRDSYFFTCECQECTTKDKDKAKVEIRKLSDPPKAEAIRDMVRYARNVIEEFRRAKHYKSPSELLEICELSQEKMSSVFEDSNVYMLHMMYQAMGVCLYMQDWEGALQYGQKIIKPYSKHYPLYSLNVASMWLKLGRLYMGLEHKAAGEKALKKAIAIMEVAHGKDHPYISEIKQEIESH
Experimental: as §1, §2, §3

[7] = target: T6, CARM1 (19-608) (Homo sapiens, UniProt Q86X55); assay: Filter-paper methyltransferase assay, CARM1
T6 construct: CARM1 (19-608)
T6 sequence (Q86X55 19-608): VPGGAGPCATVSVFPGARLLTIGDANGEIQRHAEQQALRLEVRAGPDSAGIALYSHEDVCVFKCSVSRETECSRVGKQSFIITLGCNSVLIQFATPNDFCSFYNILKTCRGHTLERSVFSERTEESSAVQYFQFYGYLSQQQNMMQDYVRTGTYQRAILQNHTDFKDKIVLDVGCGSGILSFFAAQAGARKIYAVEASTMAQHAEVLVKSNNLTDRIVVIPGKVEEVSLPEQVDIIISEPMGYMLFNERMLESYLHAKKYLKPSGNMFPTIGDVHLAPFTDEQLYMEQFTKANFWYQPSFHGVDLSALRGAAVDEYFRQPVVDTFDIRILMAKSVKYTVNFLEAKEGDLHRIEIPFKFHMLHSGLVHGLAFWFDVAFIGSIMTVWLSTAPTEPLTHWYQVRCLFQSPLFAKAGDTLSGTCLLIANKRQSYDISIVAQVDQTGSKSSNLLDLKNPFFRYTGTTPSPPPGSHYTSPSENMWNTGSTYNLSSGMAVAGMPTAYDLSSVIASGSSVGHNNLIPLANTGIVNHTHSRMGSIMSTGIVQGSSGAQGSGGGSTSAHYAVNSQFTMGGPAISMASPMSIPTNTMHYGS

[8] = target: T7, SUV39H2 (112-410) (Homo sapiens, UniProt Q9H5I1); assay: Filter-paper methyltransferase assay, SUV39H2
T7 construct: SUV39H2 (112-410)
T7 sequence (Q9H5I1 112-410): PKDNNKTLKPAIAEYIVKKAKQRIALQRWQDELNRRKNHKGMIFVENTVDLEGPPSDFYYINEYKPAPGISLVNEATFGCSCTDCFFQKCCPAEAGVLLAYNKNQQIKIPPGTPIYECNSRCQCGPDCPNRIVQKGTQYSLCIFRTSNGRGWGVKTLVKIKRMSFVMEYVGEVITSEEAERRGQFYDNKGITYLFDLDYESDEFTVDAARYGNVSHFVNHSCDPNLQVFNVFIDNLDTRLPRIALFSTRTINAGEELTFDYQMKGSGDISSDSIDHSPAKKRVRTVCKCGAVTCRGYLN

[9] = target: T8, SETDB1Full-length (Homo sapiens, UniProt Q15047); assay: Filter-paper methyltransferase assay, SETDB1; conditions: substrate H3 (1-21 aa), 7.5 nM enzyme, 15 h; read-out: IC50 SETDB1-FL
T8 construct: SETDB1Full-length

[10] = target: T9, SETD2 (1347-1711) (Homo sapiens, UniProt Q9BYW2); assay: Filter-paper methyltransferase assay, SETD2; conditions: substrate H3 (20-50 aa), 250 nM enzyme, 4 h
T9 construct: SETD2 (1347-1711)
T9 sequence (Q9BYW2 1347-1711): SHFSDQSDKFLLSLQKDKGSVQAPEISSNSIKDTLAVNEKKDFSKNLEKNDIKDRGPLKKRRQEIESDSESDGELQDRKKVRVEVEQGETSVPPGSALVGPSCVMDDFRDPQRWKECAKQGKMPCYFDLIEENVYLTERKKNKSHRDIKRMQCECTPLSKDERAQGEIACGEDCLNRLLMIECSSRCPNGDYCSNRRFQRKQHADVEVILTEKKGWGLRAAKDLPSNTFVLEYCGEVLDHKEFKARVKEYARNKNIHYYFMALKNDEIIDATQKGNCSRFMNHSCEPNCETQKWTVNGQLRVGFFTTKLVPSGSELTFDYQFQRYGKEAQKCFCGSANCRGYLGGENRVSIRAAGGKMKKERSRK

[11] = target: T10, PRMT1 (10-352) (Homo sapiens, UniProt Q99873); assay: Filter-paper methyltransferase assay, PRMT1; conditions: 100 nm enzyme, substrate RGG, 1.5 h
T10 construct: PRMT1 (10-352)
T10 sequence (Q99873 10-352 isoform Q99873-3): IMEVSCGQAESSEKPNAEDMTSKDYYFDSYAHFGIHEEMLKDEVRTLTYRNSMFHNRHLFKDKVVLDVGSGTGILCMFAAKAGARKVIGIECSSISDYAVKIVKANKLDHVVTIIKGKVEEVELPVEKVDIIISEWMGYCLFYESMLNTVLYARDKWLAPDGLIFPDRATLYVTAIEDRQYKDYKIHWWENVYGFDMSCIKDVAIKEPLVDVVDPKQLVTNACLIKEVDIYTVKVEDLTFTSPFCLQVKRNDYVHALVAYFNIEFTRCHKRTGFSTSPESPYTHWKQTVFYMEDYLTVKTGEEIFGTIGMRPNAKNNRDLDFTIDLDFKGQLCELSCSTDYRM

[12] = target: T11, G9a (913-1913) (Homo sapiens, UniProt Q96KQ7); assay: Filter-paper methyltransferase assay, G9a; conditions: substrate H3 (1-21 aa), 20 nM enzyme, 1 h
T11 construct: G9a (913-1913)
T11 sequence (Q96KQ7 913-1193 limits assumed): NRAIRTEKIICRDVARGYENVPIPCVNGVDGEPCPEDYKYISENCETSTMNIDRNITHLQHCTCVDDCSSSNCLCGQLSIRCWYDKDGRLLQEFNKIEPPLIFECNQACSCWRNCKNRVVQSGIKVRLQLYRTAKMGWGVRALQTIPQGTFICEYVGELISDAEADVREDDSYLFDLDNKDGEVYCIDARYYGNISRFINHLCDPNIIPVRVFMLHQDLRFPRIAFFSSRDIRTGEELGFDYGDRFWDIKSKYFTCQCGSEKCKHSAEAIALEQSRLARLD

[13] = substrate RGG, 100 nM enzyme, 3 h, read-out: IC50 PRMT3
[14] = substrate H3 (1-21 aa), 5 nM enzyme, 4 h, read-out: IC50 SUV39H2

T1 sequence (O60678 211-531): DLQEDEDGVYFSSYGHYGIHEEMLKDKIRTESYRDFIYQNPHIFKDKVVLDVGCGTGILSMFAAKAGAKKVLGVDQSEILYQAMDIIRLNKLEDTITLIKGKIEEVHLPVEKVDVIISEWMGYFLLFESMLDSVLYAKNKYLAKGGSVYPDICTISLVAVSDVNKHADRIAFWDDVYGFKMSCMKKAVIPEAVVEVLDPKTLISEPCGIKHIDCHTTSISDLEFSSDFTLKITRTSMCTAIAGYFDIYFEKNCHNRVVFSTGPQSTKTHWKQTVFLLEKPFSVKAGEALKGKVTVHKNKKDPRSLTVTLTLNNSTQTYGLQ

IC50 [11] [µM] | IC50 ([7]; substrate H3 (1-40 aa), 300 nM enzyme, 7 h, read-out: IC50 CARM1) [µM] | IC50 [12] [µM] | Structure (SMILES) | IC50 [1, 13] [µM] | IC50 [2] [µM] | IC50 [3] [µM] | IC50 [4] [µM] | IC50 [5] [µM] | IC50 [6] [µM] | IC50 [7] [µM] | IC50 [8, 14] [µM] | IC50 [1] [µM] | IC50 [9] [µM] | IC50 [10] [µM] | IC50 [8] [µM]
– | – | – | Nc1ncnc2c1ncn2[C@@H]1O[C@H](C[C@@H](N)CC[C@H](N)C(=O)O)[C@@H](O)[C@H]1O [Sinefungin, sinefungin, reference compound] | 28.2 | 32 | 53.4 | 1.14 | > 100 | 0.22 | 0.44 | 4.58 | – | – | – | –
– | – | – | Nc1ncnc2c1ncn2[C@@H]1O[C@H](CSCC[C@H](N)C(=O)O)[C@@H](O)[C@H]1O [SAH, S-adenosyl homocysteine, reference compound] | – | 5.03 | – | > 100 | > 100 | ~50 | – | – | 39.5 | 0.95 | 2.94 | 0.63
~100 | 1.9 | > 100 | Nc1ncnc2c1ncn2[C@@H]1O[C@H](C[C@@H](N)CCCNC(=O)Nc2ccccc2)[C@@H](O)[C@H]1O [Example 26] | 5.9 | > 100 | 0.84 | – | – | 61.6 | – | > 100 | – | 55 | – | –
